Laboratory results: publication PMC6255700, “A novel glycosyltransferase catalyses the transfer of glucose to glucosylated anthocyanins in purple sweet potato” (Journal of Experimental Botany, 2018)

Key:
[1] = biological target: T1, At3GGT (UGT79B1, AtA3G2XylT) (Arabidopsis thaliana, UniProt Q9LVW3); assay: HPLC / LC-MS glycosyltransferase assay with crude recombinant yeast extract; type: cell-based; settings: acceptor; donor UDP-xylose; 100 mM phosphate pH 7.0, 37 °C, 2 h
T1 construct: gene A3G2XYLT; full length, C-terminal His6, pYES2 in Saccharomyces cerevisiae BY4742, crude yeast extract
T1 sequence (Q9LVW3 1-468): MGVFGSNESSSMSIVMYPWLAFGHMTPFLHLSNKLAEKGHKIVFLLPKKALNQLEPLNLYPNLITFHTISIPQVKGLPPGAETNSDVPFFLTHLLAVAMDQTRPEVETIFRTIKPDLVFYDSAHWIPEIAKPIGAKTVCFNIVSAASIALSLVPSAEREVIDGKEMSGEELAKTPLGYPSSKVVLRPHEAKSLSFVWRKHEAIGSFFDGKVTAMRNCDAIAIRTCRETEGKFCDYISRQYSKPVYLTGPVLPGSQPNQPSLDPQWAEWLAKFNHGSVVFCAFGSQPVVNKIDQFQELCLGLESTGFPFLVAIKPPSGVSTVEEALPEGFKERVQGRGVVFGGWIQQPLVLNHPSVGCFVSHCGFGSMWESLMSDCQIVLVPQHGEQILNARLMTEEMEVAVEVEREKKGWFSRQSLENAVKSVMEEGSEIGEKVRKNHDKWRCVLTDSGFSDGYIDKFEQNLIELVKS

Ib3GGT (IbA3G2GluT) = biological target: T2, Ib3GGT (IbA3G2GluT) (Ipomoea batatas, UniProt A1YM58); assay: as above; type: cell-based; settings: acceptor; donor 1 mM UDP-glucose; 100 mM phosphate pH 7.0, 37 °C, 2 h
T2 construct: gene GT
T2 sequence (A1YM58 entry or part of it): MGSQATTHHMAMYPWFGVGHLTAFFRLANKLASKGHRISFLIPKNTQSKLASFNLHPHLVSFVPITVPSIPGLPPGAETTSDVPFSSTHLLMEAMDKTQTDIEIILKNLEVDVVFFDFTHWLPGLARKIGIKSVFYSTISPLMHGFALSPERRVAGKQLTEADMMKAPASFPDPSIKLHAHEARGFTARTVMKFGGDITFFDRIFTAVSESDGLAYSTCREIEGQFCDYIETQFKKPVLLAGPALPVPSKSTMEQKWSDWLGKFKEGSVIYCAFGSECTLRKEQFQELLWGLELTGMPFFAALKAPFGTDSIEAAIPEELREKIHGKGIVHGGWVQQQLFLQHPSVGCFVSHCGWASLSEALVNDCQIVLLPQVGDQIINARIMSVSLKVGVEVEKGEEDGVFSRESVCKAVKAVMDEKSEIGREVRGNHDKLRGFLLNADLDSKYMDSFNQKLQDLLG

## OC[C@H]1O[C@@H](Oc2cc3c(O)cc(O)cc3[o+]c2-c2ccc(O)c(O)c2)[C@H](O)[C@@H](O)[C@@H]1O [cyanidin 3-O-glucoside]
[1]
  HPLC / LC-MS glycosyltransferase assay with crude recombinant yeast extract: using only UDP-xylose as the sugar donor to catalyse cyanidin 3-O-glucoside into cyanidin 3-O-glucoside-2″-O-xyloside
Ib3GGT (IbA3G2GluT)
  HPLC / LC-MS glycosyltransferase assay with crude recombinant yeast extract: The recombinant Ib3GGT protein only catalysed the conversion of cyanidin 3-O-glucoside into cyanidin 3-O-sophoroside
